In brackets after ≈: the same amount, converted by molar mass. Several values for one entry are separate records, joined by “and”; a condition that tells them apart may be missing. Equal values may be shown once. Read-outs that look alike come from different tables or passages of the source.
What was measured:
[1] = cited from earlier work
rats = conditions: cited from earlier work
MCF-7 cells = experiment: Cytotoxicity to MCF-7 cells with or without 25 μM dicoumarol (sulforhodamine B assay); type: cell-based, human
Protocol: The NQO1-dependent cytotoxicity of the first set of derivatives was determined in MCF-7 cells which express high levels of NQO1. Cells were exposed to DNQ for 2 hours in the presence or absence of 25 μM DIC. The media was then removed and cells were washed once with media then fresh media was added and the cells were incubated for 72 hours. Cell death was assessed using the sulforhodamine B assay previously described. […] Substitution off the nitrogen appeared well tolerated (4-14 and 4-15).
The DNQ derivatives synthesized were assayed for their toxicity to MCF-7 cells with or without DIC. The data from these experiments is organized in Table 4.2. […] This tolerance of sterically-demanding substituents corresponds with a flexible and promiscuous NQO1 active site. The poor activity of hydroxyl derivative 4-41 may be a result of either poor binding with the largely hydrophobic NQO1 active site or with an excessively strong substrate-enzyme interaction because of hydrogen bonding.

NQO1 = NQO1 (Homo sapiens, UniProt P15559); experiment: NQO1 enzymatic measurements in vitro; type: biochemical; conditions: 1 μM substrate
Sequence of NQO1 (P15559 whole entry): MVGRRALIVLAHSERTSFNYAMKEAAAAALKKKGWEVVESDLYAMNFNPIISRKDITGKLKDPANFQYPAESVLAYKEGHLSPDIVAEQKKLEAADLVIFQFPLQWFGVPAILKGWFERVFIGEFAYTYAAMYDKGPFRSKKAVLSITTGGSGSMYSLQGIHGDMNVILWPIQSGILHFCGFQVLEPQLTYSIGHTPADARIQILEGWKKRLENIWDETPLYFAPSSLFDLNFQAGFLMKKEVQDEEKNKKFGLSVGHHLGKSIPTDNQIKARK
Protocol: As further evidence that the activity of these DNQ derivatives is dependent on their ability to be reduced by NQO1, full enzymatic measurements in vitro were performed. We found a strong correlation between catalytic efficiency of substrates in vitro and their cell culture toxicity. […] This provides strong evidence that the cytotoxicity of DNQ and its derivatives are dependent primarily upon the activity of NQO1 within the cell.

[2] = Aqueous solubility in pH 7.4 PBS by LC-MS; type: physicochemical; conditions: phosphate buffered saline, pH 7.4, aqueous buffer, thermodynamic from solid, PBS pH 7.4; Table 4.3
Protocol: The aqueous solubility of DNQ at pH 7.4 in phosphate buffered saline (PBS) was measured by LC-MS. DNQ was sonicated for 30 minutes in PBS then undissolved solid was removed by filtration through a 0.45 μm syringe filter and the filtrate was analyzed by LC-MS (λ=275 nm, ESI-TOF in negative mode). The optimal sonication time was determined by sonicating DNQ for 1, 5, 10, and 30 minutes. While the concentration of DNQ in solution increased substantially between 1, 5, and 10 minutes, there was only a minor difference between 10 and 30 minutes. During the 30 minute sonication the water bath warmed to 45° C. (samples were cooled to room temperature before filtration). A calibration curve was generated from 1-100 μM by dissolving DNQ in methanol to a concentration of 500 μM and making dilutions of this stock in 80:20 water:methanol. The calibration curve (measure by UV absorbance) was linear over this range; 1 μM was approximately the limit of detection. […] The solution was very pale yellow.
The aqueous solubility of the compounds was determined by an LC-MS assay as described in the specification above. We applied the calibration curve generated for DNQ to the derivatives under the assumption that the UV profile of the derivatives of DNQ would be similar to that of DNQ.
After sonication and filtration most of the aqueous solutions were colorless. The solutions of DNQ, 4-31, and 4-37 were faintly yellow while 4-8, 4-14 and 4-41 were substantially more colored. The solution of 4-8, 4-14 and 4-41 were diluted 10-fold with PBS prior to LC-MS analysis to ensure that the concentrations fell within the range of the calibration curve.

[3] = Solubility in 20% HPβCD solution (pH modulation protocol); type: physicochemical; conditions: 20% HPβCD; for solubility: 20% HPβCD in pH 7.4 PBS, pH 7.4, aqueous with cosolvent or surfactant or cyclodextrin, thermodynamic from solid, Table 4.3
Protocol: The protocol for formulating DNQ compounds in HPβCD is as follows: the DNQ compound is slurried in a 20% solution of HPβCD in pH 7.4 PBS and the pH is then increased by the addition of 10 M NaOH to induce dissolution of the DNQ compound. The pH is returned to pH 7.5-8.0 by the careful addition of 1 M HCl. A 3.3 mM solution of the DNQ compound can be made by this method which is stable at least 24 hours. This represents a 30-fold increase in solubility of DNQ over PBS alone.
Although we were pleased to find active derivatives of DNQ that were up to 4-fold more soluble in water—sufficiently soluble for continuous IV infusion for human administration—this level of solubility was insufficient for animal studies by bolus injection. […] We used the same pH modulation protocol outlined for DNQ described in the specification above. The results are organized in Table 4.3 and FIG. 8. While all compounds were more soluble in HPβCD than in buffer alone, the fold increase in solubility varied widely.

[4] = Solubility in organic solvents; type: physicochemical; conditions: for solubility: organic solvent or mixture, thermodynamic from solid
Protocol: The solubility of DNQ derivatives in organic solvents was determined by measuring the amount of a given solvent required to dissolve a known amount of compound. Solvent was added to the compound in 50 μL aliquots and the slurry was sonicated. […] Solubility was assessed in DMSO, dichloromethane, and 33% methanol in dichloromethane (FIGS. 9, 10, and 11, respectively).

[5] = Maximum tolerated dose in mice; conditions: mouse, ip
Excerpt: (§1) Because of the difficulty of repeated tail vein injections in mice, our group is using IP administration of compound.
(§2) All of these derivatives are currently being assessed for their maximum tolerated dose (MTD) in healthy mice. Compounds are formulated in HPβCD and delivered by IP injection to two mice once daily for five days.

healthy mice = experiment: in vivo; conditions: mouse, 5 days
Excerpt: as §1, §2

PAR-PARP1 = experiment: PARP1 hyperactivation (PAR-PARP1 formation) in vivo in orthotopic Lewis Lung Carcinoma model, immunoblotting; parameters: species or system NOD/SCID mice; conditions: iv at or near MTD
Protocol: Antibodies that specifically detect poly(ADP-ribosyl)ated α-PAR (BD Pharmingen, San Jose, Calif.) proteins (e.g., the most abundant species, poly(ADP-ribosyl)ated PARP1, PAR-PARP1) and α-PARP1 (sc-8007, Santa Cruz Biotechnology) antibodies were used at 1:4000 and 1:2000 dilutions, respectively. α-Tubulin was monitored for loading.
To generate a known control to monitor the formation of poly(ADP-ribose)ylated-polymerase 1 (PAR-PARP1) in cells, LLC tumor cells were treated in vitro with hydrogen peroxide (H2O2, 0.5 μM) for 15 minutes, and whole cell protein lysates were separated by SDS-PAGE using the α-PAR (BD Pharmingen, San Jose, Calif.) antibody described above. PAR-PARP1 formation was then assessed by immunoblot analyses as previously described in Huang et al., Cancer Research, 2012.
LLC cells (1.0×10^6) were intravenously (iv) injected into the tail veins of female 18-20 gram NOD/SCID mice. Establishment of tumor nodules in the lungs of exposed mice were confirmed by bioluminescence and mice (5/group) were treated intravenously (via tail vein injection) with: (i) hydroxypropyl-beta-cyclodextrin (HPRCD) vehicle alone; (ii) DNQ (7.5 mg/kg); (ii) DNQ-87 (14 mg/kg); (iii) DNQ-107 (10 mg/kg); or (vi) DNQ 9-251 (20 mg/kg) dissolved in HPRCD. At specific times indicated (in mins) after injection of vehicle or drug, mice were euthanized, lungs removed and tumor nodules harvested. […] Extracts from cells treated with H2O2 were used as controls for monitoring PAR-PARP1 formation in LLC tumor cells.

[6] = Solubility in organic solvents; type: physicochemical; conditions: Table 1; for solubility: organic solvent or mixture, thermodynamic from solid, THF
[7] = pH 7.4 PBS; cited from earlier work
[8] = 20% HPβCD in H2O; cited from earlier work
[9] = reported; cited from earlier work
NQO1+ cells = conditions: in vitro; cited from earlier work
[10] = Homo sapiens, MCF7, Table 1, read-out: MCF7 IC50
[11] = Homo sapiens, MCF7, classification in figure legends of FIGS. 7-11, read-out: IC50 ("active" / generally "inactive" compounds)
[12] = 2:1 CH2Cl2:MeOH, Table 4.3, read-out: Solubility in 2:1 CH2Cl2:MeOH
[13] = CH2Cl2:MeOH 2:1, Table 1, read-out: CH2Cl2:MeOH 2:1 solubility
[14] = CH2Cl2, Table 1, read-out: CH2Cl2 solubility
[15] = DMSO, Table 1, read-out: DMSO solubility

Compound | IC50 (MCF-7 cells; [10]) | IC50 (MCF-7 cells; [11]) | Fold Protection of MCF7 cells w/ 25 μM dicoumarol (MCF-7 cells; Table 1) | NQO1 Initial Velocity @ 1 μM (NQO1) | solubility at 30 min [2] | solubility [3] | Solubility in CH2Cl2 ([4]; CH2Cl2, Table 4.3) | Solubility in DMSO ([4]; DMSO, Table 4.3) | solubility [4, 12] | solubility [4, 13] | solubility [4, 14] | solubility [4, 15] | PAR-PARP1 formation in tumor tissue (PAR-PARP1) | solubility [6] | also measured
2-hydroxypropyl-beta-cyclodextrin [HPβCD] | – | – | – | – | – | – | – | – | – | – | – | – | – | – | tolerated dose by IP injection [1]: > 5000 mg/kg; MTD by IV injection (rats): approximately 2.25 g/kg
Cc1cc(=O)[nH]c2c1C(=O)c1c(C)cc(=O)n(CCC(C)(C)C)c1C2=O [Compound 9-251] | 190 ± 20 nM | < 500 nM | 8 | 2000 ± 100 | 0.007 mM (≈ 2.48 µg/mL) | 19 mM (≈ 6730 µg/mL) | 31 mM (≈ 11000 µg/mL) | 15 mM (≈ 5320 µg/mL) | 120 mM (≈ 42500 µg/mL) | 120 mM (≈ 42500 µg/mL) | 31 mM (≈ 11000 µg/mL) | 15 mM (≈ 5320 µg/mL) | higher levels of PAR-PARP1 formation | 23 mM (≈ 8150 µg/mL) | IC50 (MCF-7 cells; Homo sapiens, MCF7, Table 4.2, no DIC, ± s.e., read-out: IC50 vs. MCF-7 cells): 220 ± 40 nM; IC50 (MCF-7 cells; Homo sapiens, MCF7, read-out: IC50 vs. MCF-7 cells +25 μM DIC, Table 4.2, +25 μM DIC, ± s.e.): 1600 ± 600 nM; Fold protection by DIC (MCF-7 cells; Table 4.2): 7.1; fold increase in solubility in HPβCD over PBS alone [3]: 3000 fold; MTD at 5 days ([5]; in vivo): 22 mg/kg and 62 µmol/kg; tolerated concentration relative to DNQ (healthy mice): 3.5 fold
CCc1cc(=O)n(C)c2c1C(=O)c1c(C)cc(=O)[nH]c1C2=O [Compound 107] | 280 nM | < 500 nM | 4.5 | 1400 ± 100 | 0.439 mM (≈ 131 µg/mL) | 4.4 mM (≈ 1310 µg/mL) | 5.5 mM (≈ 1640 µg/mL) | 31 mM (≈ 9250 µg/mL) | 37 mM (≈ 11000 µg/mL) | 37 mM (≈ 11000 µg/mL) | 5.5 mM (≈ 1640 µg/mL) | 31 mM (≈ 9250 µg/mL) | higher levels of PAR-PARP1 formation | 4.7 mM (≈ 1400 µg/mL) | IC50 (MCF-7 cells; Homo sapiens, MCF7, 2 h, Table 4.1, 2 h exposure, no DIC, ± s.e., read-out: IC50 vs. MCF-7 cells): 280 ± 60 nM; IC50 (MCF-7 cells; Homo sapiens, MCF7, read-out: IC50 vs. MCF-7 cells +25 μM DIC, Table 4.1, +25 μM DIC, ± s.e.): 1300 ± 400 nM; Fold protection by DIC (MCF-7 cells; Table 4.1): 4.5; MTD at 5 days [5]: ≤ 10 mg/kg and ≤ 35 µmol/kg
CC1(C)CCC2=C(O1)c1ccccc1C(=O)C2=O [β-lap, β-lapachone, reference compound] | – | – | 2.1 | 150 | – | – | – | – | – | – | – | – | – | – | IC50 (MCF-7 cells; Table 1, read-out: MCF7 IC50): 3700 nM; CH2Cl2:MeOH 2:1 solubility ([4]; CH2Cl2:MeOH 2:1, Table 1): 1400 mM; CH2Cl2 solubility ([4]; CH2Cl2, Table 1): 1650 mM; DMSO solubility ([4]; DMSO, Table 1): 170 mM; aqueous solubility [7]: ~0.16 mM (≈ 38.8 µg/mL); fold increase in solubility in HPβCD [8]: ~150 fold; THF solubility [6]: 660 mM; time to complete degradation in whole blood [9]: ≤ 30 min; LD50 (NQO1+ cells): 2 to 10 µM
